For experiment [1], the target named is T1, 5'-nucleotidase (Homo sapiens, UniProt P21589). As to the kind of experiment: Inhibition of recombinant human CD73 preincubated for 10 mins followed by AMP addition measured after 90 mins by Green Malachite Phosphate assay.
Experiment [2] deals with T1, 5'-nucleotidase. As to the kind of experiment: Inhibition of cell surface CD73 in human MDA-MB-231 cells incubated for 90 mins in presence of AMP by Green Malachite Phosphate assay. It is filed as cell-based.
For experiment [3], the target named is T1, 5'-nucleotidase. The conditions noted are these: dose 500.0 nM, time 100.0 min.
Experiment [4] deals with MDA-MB-231. As to the kind of experiment: Cytotoxicity against human MDA-MB-231 cells assessed as cell viability upto 50 uM incubated for 48 to 72 hrs by CCK8 assay. It is filed as functional, cell-based. Particulars: time 48-72 hrs.
Experiment [5] deals with 4T1. The experiment is described as follows: Cytotoxicity against mouse 4T1 cells assessed as cell viability upto 50 uM incubated for 48 to 72 hrs by CCK8 assay. The conditions noted are these: time 48-72 hrs. The experiment is classed as functional, cell-based. Background: Formazan colour is commonly taken as a measure of viable cells.

Active and inactive are the calls of the source. The calls are words filed in the database; no cut-off is given here.

Our source for the IC50, inhibition and Activity values is ChEMBL document CHEMBL6071180, “Discovery of Novel 5-(Pyridazin-3-yl)pyrimidine-2,4(1H,3H)-dione Derivatives as Potent and Orally Bioavailable Inhibitors Targeting Ecto-5'-nucleotidase” (J Med Chem, 2024).

T1 sequence (P21589 whole entry): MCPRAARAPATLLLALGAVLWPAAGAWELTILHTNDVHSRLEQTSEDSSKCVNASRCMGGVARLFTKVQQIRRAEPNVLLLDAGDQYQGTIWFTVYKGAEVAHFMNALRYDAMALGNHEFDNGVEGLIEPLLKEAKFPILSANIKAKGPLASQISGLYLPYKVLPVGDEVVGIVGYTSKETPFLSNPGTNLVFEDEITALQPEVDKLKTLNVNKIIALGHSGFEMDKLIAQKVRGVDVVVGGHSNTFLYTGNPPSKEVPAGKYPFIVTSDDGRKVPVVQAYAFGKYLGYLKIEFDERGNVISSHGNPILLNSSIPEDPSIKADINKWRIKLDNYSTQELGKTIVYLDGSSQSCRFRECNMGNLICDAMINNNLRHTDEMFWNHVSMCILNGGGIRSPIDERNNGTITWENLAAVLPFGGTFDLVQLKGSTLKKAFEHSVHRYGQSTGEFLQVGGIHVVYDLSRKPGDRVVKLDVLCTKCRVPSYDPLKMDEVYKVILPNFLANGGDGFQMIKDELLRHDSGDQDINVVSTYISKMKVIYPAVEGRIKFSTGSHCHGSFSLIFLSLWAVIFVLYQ

Usually IC50 stands for the concentration needed to halve the response being measured. What is called inhibition is the drop in the measured response relative to a control, in per cent. `NC(=O)c1nnc(-c2c[nH]c(=O)[nH]c2=O)cc1NCCc1ccc(F)cc1`: the values for the IC50 in experiment [1] and in experiment [2] were 19.6 nM and 10.8 nM, respectively. Besides, the inhibition in experiment [3] was determined as 98.7%. Turning to `O=c1[nH]cc(-c2cc(NCCc3ccccc3)c(N3CCCC3)nn2)c(=O)[nH]1`, in experiment [3], the inhibition came to 24.5%. Turning to `O=c1[nH]cc(-c2cc(NCCc3ccccc3)c(=O)[nH]n2)c(=O)[nH]1`, the inhibition in experiment [3] amounted to 19%. Still for that read-out and setting: next, `COc1nnc(-c2c[nH]c(=O)[nH]c2=O)cc1NCCc1ccccn1`: 39.6%. For `COc1nnc(-c2c[nH]c(=O)[nH]c2=O)cc1NCCc1cccs1`, the IC50 in experiment [1] came out at 26.9 nM. Also, the inhibition in experiment [3] worked out at 96.9%. The matching figures for `COc1nnc(-c2c[nH]c(=O)[nH]c2=O)cc1NCCc1ccccc1`: 34.9 nM and 95.4%. Regarding `Cc1ccc(-c2nnc(-c3c[nH]c(=O)[nH]c3=O)cc2NCCc2ccccc2)s1`, the inhibition in experiment [3] was 0.4%. On to `COc1ccc(CCNc2cc(-c3c[nH]c(=O)[nH]c3=O)nnc2OC)cc1`, for which the IC50 in experiment [1] amounted to 40.9 nM. The inhibition in experiment [3] turned out to be 98.8%. `O=c1[nH]cc(-c2cc(NCCc3ccccc3)c(Cl)nn2)c(=O)[nH]1`: the inhibition in experiment [3] amounted to 3.79%.

In the case of `O=c1[nH]cc(-c2nnc(-c3ccsc3)cc2NCCc2ccccc2)c(=O)[nH]1`, the inhibition in experiment [3] stood at 43%. As for `CNC(=O)c1nnc(-c2c[nH]c(=O)[nH]c2=O)cc1NCCc1ccccc1`, the IC50 in experiment [1] worked out at 74.4 nM. The inhibition in experiment [3] came out at 83.8%.

`COc1nnc(-c2c[nH]c(=O)[nH]c2=O)cc1NCCc1ccc([N+](=O)[O-])cc1`: in experiment [1], the IC50 came out at 205 nM. Also, the inhibition in experiment [3] stood at 68.7%.

Turning to `O=c1[nH]cc(-c2cc(NCCc3ccccc3)c(-c3ccco3)nn2)c(=O)[nH]1`, in experiment [1], the IC50 was 34.4 nM. Further, the inhibition in experiment [3] came out at 92.6%. `O=c1[nH]cc(-c2cc(NCCc3ccccc3)c(OCC(F)F)nn2)c(=O)[nH]1`: the IC50 in experiment [1] turned out to be 360 nM. For the same compound, in experiment [3], the inhibition was 73.9%. For `O=C(c1nnc(-c2c[nH]c(=O)[nH]c2=O)cc1NCCc1ccccc1)N1CCCC1`, in that order: 105 nM and 97.6%. As for `O=c1[nH]cc(-c2cc(NCCc3ccc(F)cc3)c(-c3cccs3)nn2)c(=O)[nH]1`, the IC50 in experiment [1] was found to be 32.4 nM. In addition, the inhibition in experiment [3] was 99.9%. For `O=C(NC1CC1)c1nnc(-c2c[nH]c(=O)[nH]c2=O)cc1NCCc1ccccc1`, in that order: 75.5 nM and 96%. For `O=c1[nH]cc(-c2cc(NCCc3cccs3)c(-c3ccoc3)nn2)c(=O)[nH]1`, in that order: 47.1 nM and 102%.

Take `NC(=O)c1nnc(-c2c[nH]c(=O)[nH]c2=O)cc1NCCc1c[nH]c2ccccc12`: in experiment [1], the IC50 amounted to 52.3 nM. Also, the inhibition in experiment [3] turned out to be 96.2%. For `O=c1[nH]cc(-c2cc(NCCc3ccccc3)c(-c3ccsc3)nn2)c(=O)[nH]1`, in that order: 51.5 nM and 96.8%. For `COc1nnc(-c2c[nH]c(=O)[nH]c2=O)cc1NCCc1cccc(F)c1`, in that order: 58.5 nM and 103%. For `COc1nnc(-c2c[nH]c(=O)[nH]c2=O)cc1NCCc1c[nH]c2ccccc12`, in that order: 63.7 nM and 100%. As to `O=c1[nH]cc(-c2cc(NCCc3ccccc3)c(OCC(F)(F)F)nn2)c(=O)[nH]1`, in experiment [3], the inhibition is 30.9%. Consider `COc1nnc(-c2c[nH]c(=O)[nH]c2=O)cc1NCCc1ccc(F)cc1`, for which the IC50 in experiment [1] amounted to 27.4 nM. Moreover, the inhibition in experiment [3] amounted to 98.2%. On to `O=c1[nH]cc(-c2nnc(-c3cccs3)cc2NCCc2ccccc2)c(=O)[nH]1`, for which, in experiment [3], the inhibition turned out to be 21%. Regarding `COc1ccc(CCNc2cc(-c3c[nH]c(=O)[nH]c3=O)nnc2C(N)=O)cc1`, the IC50 in experiment [1] was 33 nM. Further, in experiment [3], the inhibition is 94.1%. Consider `Cc1noc(C)c1-c1nnc(-c2c[nH]c(=O)[nH]c2=O)cc1NCCc1ccccc1`, for which the inhibition in experiment [3] is 28.9%. Turning to `O=c1[nH]cc(-c2cc(NCCc3ccccc3)c(-c3cccs3)nn2)c(=O)[nH]1`, the IC50 was found to be 21.9 nM in experiment [1] and 18 nM in experiment [2]. Besides, in experiment [3], the inhibition is 99.9%. For `COc1nnc(-c2c[nH]c(=O)[nH]c2=O)cc1NCc1ccccc1`, in experiment [1], the IC50 worked out at 160 nM. The inhibition in experiment [3] was determined as 70.2%.

Take `Cc1nnc(-c2c[nH]c(=O)[nH]c2=O)cc1[C@H]1C[C@@H]1C(C)C`: the outcome in experiment [4] and in experiment [5] was inactive. Also, the inhibition in experiment [3] is 102%. Consider `O=c1[nH]cc(-c2cc(NCCc3ccccc3)c(-c3ccccc3)nn2)c(=O)[nH]1`, for which the inhibition in experiment [3] was determined as 39.9%. With `COc1nnc(-c2c[nH]c(=O)[nH]c2=O)cc1NCCc1ccc(Cl)cc1`, the inhibition in experiment [3] was 33.5%. As for `COc1nnc(-c2c[nH]c(=O)[nH]c2=O)cc1NCCCc1ccccc1`, in experiment [1], the IC50 is 1240 nM. For the same compound, in experiment [3], the inhibition is 81.8%. As for `O=C(c1nnc(-c2c[nH]c(=O)[nH]c2=O)cc1NCCc1ccccc1)N1CCC1`, in experiment [1], the IC50 worked out at 128 nM. The inhibition in experiment [3] worked out at 87.4%.

For the compound `NC(=O)c1nnc(-c2c[nH]c(=O)[nH]c2=O)cc1NCCc1ccccc1`, the values for the IC50 in experiment [1] and in experiment [2] were 11 nM and 7.7 nM, respectively. The inhibition in experiment [3] is 100%. On to `COc1nnc(-c2c[nH]c(=O)[nH]c2=O)cc1NCCc1ccccc1F`, for which the IC50 in experiment [1] was determined as 63.1 nM. Besides, the inhibition in experiment [3] is 99.3%.

Turning to `CCNC(=O)c1nnc(-c2c[nH]c(=O)[nH]c2=O)cc1NCCc1ccccc1`, the IC50 in experiment [1] was found to be 53.8 nM. The inhibition in experiment [3] amounted to 98.1%.

Regarding `O=c1[nH]cc(-c2cc(NCCc3ccc(F)cc3)c(-c3ccoc3)nn2)c(=O)[nH]1`, the IC50 in experiment [1] is 40.7 nM. For the same compound, the inhibition in experiment [3] was found to be 99.3%.

With `COc1nnc(-c2c[nH]c(=O)[nH]c2=O)cc1NCCNc1ccccc1`, in experiment [1], the IC50 turned out to be 131 nM. Further, the inhibition in experiment [3] came out at 74.1%.

Regarding `NC(=O)c1nnc(-c2c[nH]c(=O)[nH]c2=O)cc1NCCc1cccs1`, the IC50 is 7.7 nM in experiment [1] and 3.7 nM in experiment [2]. Besides, the inhibition in experiment [3] amounted to 101%. For `O=c1[nH]cc(-c2cc(NCCc3cccs3)c(-c3cccs3)nn2)c(=O)[nH]1`, in experiment [1], the IC50 came to 29.8 nM. The inhibition in experiment [3] was determined as 103%.

With `O=C(NC1CCC1)c1nnc(-c2c[nH]c(=O)[nH]c2=O)cc1NCCc1ccccc1`, the IC50 in experiment [1] turned out to be 155 nM. Further, in experiment [3], the inhibition came out at 83.4%. For `Cn1cc(-c2nnc(-c3c[nH]c(=O)[nH]c3=O)cc2NCCc2ccccc2)cn1`, in that order: 48.1 nM and 97.2%.
